Results from US10925856B2, “Methods and compositions involving bucindolol for the treatment of atrial fibrillation” (priority 2018, dated 2021).

How the values were obtained:
[1] = test system: advanced HFrEF patients (ADRB1 Arg389Gly / ADRA2C Ins322-325Del genotypes); experiment: BEST trial and DNA (pharmacogenetic) substudy: bucindolol vs. placebo; type: in vivo, human
Text: The relationship of the ADRA2C Ins/Del polymorphism to systemic NE levels and clinical outcomes was investigated as part of the BEST trial AR polymorphism substudy.
Variables identified in the GENETIC-AF Statistical Analysis Plan (SAP) that were potential predictors of the primary endpoint were investigated by precision therapeutic phenotyping. Hypothesis-based (e.g., AF duration, AF type, LVEF, NYHA Class, NT-proBNP, norepinephrine) and hypothesis-free (e.g. HF duration, initial study dose) elements were included in the multivariate methodology, which was applied to both obvious and non-obvious data to identify a therapeutic phenotype appropriate for investigating in Phase 3. To examine the relationship between HF duration and bucindolol effectiveness for reducing HF events, we analyzed data from the BEST trial (14) and pharmacogenetic substudy (17) for the endpoint of time to all-cause mortality or first HF hospitalization (ACM/HFH).

[2] = biological target: T1, human β1-adrenergic receptor (Homo sapiens, UniProt P08588, G389R); experiment: Estimated β1-AR receptor occupancy from plasma concentration and KD; details: 12 weeks trough plasma concentration
T1 construct: from tissue; host or cells: notional myocardial receptor of GENETIC-AF patients; no receptor preparation was assayed

clinical = details: human, in vivo
Text: Based on FDA interactions and recommendations^63 the inventor sought to categorize CYP2D6 genetic variation in every patient in GENETIC-AF.
CYP2D6 polymorphisms were identified using the xTAG® CYP2D6 Kit v3 manufactured by Luminex Corporation, with the assay performed by Esoterix, Boulder, Colo. on DNA extracted from whole blood by LabCorp's subsidiary Covance, of Salt Lake City, Utah See Table 41 in the Appendix for identified polymorphisms.
Sparse sampling of bucindolol hydrochloride plasma concentrations for population pharmacokinetic analysis. The analysis plan for the substudy will be prepared separately prior to unblinding.

NT-proBNP = experiment: Plasma NT-proBNP (electrochemiluminescence immunoassay)
[3] = test system: patients with HF and/or AF; experiment: Literature β-blocker trials and meta-analyses for AF prevention / recurrence; type: in vivo, human
[4] = BEST ADRB1 389Gly Carriers n = 482
[5] = BEST ADRB1 Arg389Arg, free of AF at randomization
[6] = BEST ADRB1 Arg389Arg, free of AF at randomization, bucindolol vs placebo
[7] = BEST DNA substudy all genotypes n = 1040
[8] = Europe excluding Hungary (n = 48)
[9] = change from baseline, Canada (n = 59)
[10] = change from baseline, Entire Cohort (n = 267)
[11] = change from baseline, Europe excluding Hungary (n = 48)
[12] = change from baseline, Hungary (n = 33)
[13] = change from baseline, U.S. (n = 127)

T1 sequence (P08588 whole entry G389R): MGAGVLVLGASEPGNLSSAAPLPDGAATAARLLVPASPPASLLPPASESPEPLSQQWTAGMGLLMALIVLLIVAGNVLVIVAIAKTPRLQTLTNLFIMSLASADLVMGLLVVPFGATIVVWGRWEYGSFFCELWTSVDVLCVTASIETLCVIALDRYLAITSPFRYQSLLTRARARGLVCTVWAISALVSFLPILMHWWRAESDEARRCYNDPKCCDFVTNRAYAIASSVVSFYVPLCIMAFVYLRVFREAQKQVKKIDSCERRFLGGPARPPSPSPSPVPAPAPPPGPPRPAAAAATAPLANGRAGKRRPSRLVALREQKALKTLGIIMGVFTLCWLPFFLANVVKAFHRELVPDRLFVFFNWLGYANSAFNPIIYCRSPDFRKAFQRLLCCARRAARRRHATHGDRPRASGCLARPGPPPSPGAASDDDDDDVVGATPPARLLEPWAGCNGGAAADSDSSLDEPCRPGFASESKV

## CC(C)(Cc1c[nH]c2ccccc12)NCC(O)COc1ccccc1C#N (stereo not shown) [bucindolol, 2-(3-(1-(1H-indol-3-yl)-2-methylpropan-2-ylamino)-2-hydroxypropoxy)benzonitrile]
[1]; [4]
  Events/patients (rate), time to AF/AFL/ACM: (26.8%)
  Events/patients, time to AF/AFL/ACM: 61/228
[1]; BEST ADRB1 389Gly Carriers, bucindolol vs placebo
  Hazard Ratio (95% C.I.), time to AF/AFL/ACM: 0.95
[1]; BEST ADRB1 Arg389Arg n = 435
  Events/patients (rate), time to AF/AFL/ACM: (18.5%)
  Events/patients, time to AF/AFL/ACM: 43/232
[1]; [5]
  ACM events: 33
  ACM events/pt (%): 14.0%
  ACM/CVH events: 106
  ACM/CVH events/pt (%): 45.1%
  ACM/HFH events: 82
  ACM/HFH events/pt (%): 34.9%
  CVH events: 88
  CVH events/pt (%): 37.5%
  CVM events: 25
  CVM events/pt (%): 10.6%
  CVM/HFH events: 76
  CVM/HFH events/pt (%): 32.3%
  HFH events: 65
  HFH events/pt (%): 27.7%
[1]; [6]
  ACM HzR: 0.61
  ACM/CVH HzR: 0.72
  ACM/HFH HzR: 0.69
  CVH HzR: 0.69
  CVM HzR: 0.54
  CVM/HFH HzR: 0.66
  HFH HzR: 0.70
[1]; BEST ADRB1 Arg389Arg, bucindolol vs placebo
  Hazard Ratio (95% C.I.), time to AF/AFL/ACM: 0.49
[1]; [7]
  Events/patients (rate), time to AF/AFL/ACM: (22.6%)
  Events/patients, time to AF/AFL/ACM: 104/460
[1]; BEST DNA substudy all genotypes, bucindolol vs placebo
  Hazard Ratio (95% C.I.), time to AF/AFL/ACM: 0.70
[1]; BEST Entire Cohort n = 2708
  Events/patients (rate), time to AF/AFL/ACM: (33.6%)
  Events/patients, time to AF/AFL/ACM: 401/1193
[1]; BEST Entire Cohort, bucindolol vs placebo
  Hazard Ratio (95% C.I.), time to AF/AFL/ACM: 0.80
[2]; CYP2D6 EMs
  β1-AR receptor occupancy: 85.2%
[2]; CYP2D6 IMs
  β1-AR receptor occupancy: 94.6%
[2]; CYP2D6 PMs
  β1-AR receptor occupancy: 99.0%
clinical; 12 weeks
  Plasma concentration in PMs relative to IMs: 5.7 fold
clinical; Drug levels as measured in PMs
  concentration at 12 weeks: 200 to 500 nM
NT-proBNP; Canada
  NT-proBNP, Week 4 Mean: 859 pg/mL
  NT-proBNP, Week 4 Median: 499 pg/mL
  NT-proBNP, ΔWeek 4 Mean ± SEM: -455 pg/mL
  NT-proBNP, ΔWeek 4 Median: -184 pg/mL
NT-proBNP; Canada (n = 59)
  NT-proBNP, Baseline Mean ± SD: 1314 ± 1503 pg/mL
  NT-proBNP, Baseline Median: 790 pg/mL
  NT-proBNP, Week 12 Mean ± SD: 674 ± 767 pg/mL
  NT-proBNP, Week 12 Median: 432 pg/mL
  NT-proBNP, Week 24 Mean ± SD: 831 ± 961 pg/mL
  NT-proBNP, Week 24 Median: 425 pg/mL
NT-proBNP; Entire Cohort
  NT-proBNP, Week 4 Mean: 1196 pg/mL
  NT-proBNP, Week 4 Median: 613 pg/mL
  NT-proBNP, ΔWeek 4 Mean ± SEM: -0.4 pg/mL
  NT-proBNP, ΔWeek 4 Median: -96 pg/mL
NT-proBNP; Entire Cohort (n = 267)
  NT-proBNP, Baseline Mean ± SD: 1159 ± 1306 pg/mL
  NT-proBNP, Baseline Median: 777 pg/mL
  NT-proBNP, Week 12 Mean ± SD: 1052 ± 1923 pg/mL
  NT-proBNP, Week 12 Median: 470 pg/mL
  NT-proBNP, Week 24 Mean ± SD: 1135 ± 1632 pg/mL
  NT-proBNP, Week 24 Median: 502 pg/mL
NT-proBNP; Europe excluding Hungary
  NT-proBNP, Week 4 Mean: 756 pg/mL
  NT-proBNP, Week 4 Median: 431 pg/mL
  NT-proBNP, ΔWeek 4 Mean ± SEM: -72 pg/mL
  NT-proBNP, ΔWeek 4 Median: -108 pg/mL
NT-proBNP; [8]
  NT-proBNP, Baseline Mean ± SD: 893 ± 849 pg/mL
  NT-proBNP, Baseline Median: 600 pg/mL
  NT-proBNP, Week 12 Mean ± SD: 782 pg/mL
  NT-proBNP, Week 12 Median: 376 pg/mL
  NT-proBNP, Week 24 Mean ± SD: 1859 pg/mL
  NT-proBNP, Week 24 Median: 593 pg/mL
NT-proBNP; Hungary
  NT-proBNP, Week 4 Mean: 1616 pg/mL
  NT-proBNP, Week 4 Median: 594 pg/mL
  NT-proBNP, ΔWeek 4 Mean ± SEM: +461 pg/ml
  NT-proBNP, ΔWeek 4 Median: -47 pg/mL
NT-proBNP; Hungary (n = 33)
  NT-proBNP, Baseline Mean ± SD: 989 ± 1428 pg/mL
  NT-proBNP, Baseline Median: 567 pg/mL
  NT-proBNP, Week 12 Mean ± SD: 1095 ± 1929 pg/mL
  NT-proBNP, Week 12 Median: 446 pg/mL
  NT-proBNP, Week 24 Mean ± SD: 1244 ± 2515 pg/mL
  NT-proBNP, Week 24 Median: 244 pg/mL
NT-proBNP; U.S.
  NT-proBNP, Week 4 Mean: 1501 pg/mL
  NT-proBNP, Week 4 Median: 796 pg/mL
  NT-proBNP, ΔWeek 4 Mean ± SEM: +182 pg/ml
  NT-proBNP, ΔWeek 4 Median: -75 pg/mL
NT-proBNP; U.S. (n = 127)
  NT-proBNP, Baseline Mean ± SD: 1245 ± 1332 pg/mL
  NT-proBNP, Baseline Median: 904 pg/mL
  NT-proBNP, Week 12 Mean ± SD: 1383 ± 2538 pg/mL
  NT-proBNP, Week 12 Median: 561 pg/mL
  NT-proBNP, Week 24 Mean ± SD: 1124 ± 1516 pg/mL
  NT-proBNP, Week 24 Median: 653 pg/mL
NT-proBNP; Week 24, Canadian cohort
  NT-proBNP decrease: −39%
  NT-proBNP decrease relative to that in the metoprolol group: ~3 fold
NT-proBNP; [9]
  NT-proBNP, ΔWeek 12 Mean ± SEM: -602 ± 232 pg/mL
  NT-proBNP, ΔWeek 12 Median: -176 pg/mL
  NT-proBNP, ΔWeek 24 Mean ± SEM: -442 ± 223 pg/mL
  NT-proBNP, ΔWeek 24 Median: -271 pg/mL
NT-proBNP; [10]
  NT-proBNP, ΔWeek 12 Mean ± SEM: -108 ± 133 pg/mL
  NT-proBNP, ΔWeek 12 Median: -96 pg/mL
  NT-proBNP, ΔWeek 24 Mean ± SEM: -92 ± 136 pg/mL
  NT-proBNP, ΔWeek 24 Median: -197 pg/mL
NT-proBNP; [11]
  NT-proBNP, ΔWeek 12 Mean ± SEM: -101 pg/mL
  NT-proBNP, ΔWeek 12 Median: -92 pg/mL
  NT-proBNP, ΔWeek 24 Mean ± SEM: +983 pg/ml
  NT-proBNP, ΔWeek 24 Median: -48 pg/mL
NT-proBNP; [12]
  NT-proBNP, ΔWeek 12 Mean ± SEM: +40 ± 170 pg/ml
  NT-proBNP, ΔWeek 12 Median: -96 pg/mL
  NT-proBNP, ΔWeek 24 Mean ± SEM: +41 ± 276 pg/ml
  NT-proBNP, ΔWeek 24 Median: -176 pg/mL
NT-proBNP; [13]
  NT-proBNP, ΔWeek 12 Mean ± SEM: +130 ± 262 pg/ml
  NT-proBNP, ΔWeek 12 Median: -81 pg/mL
  NT-proBNP, ΔWeek 24 Mean ± SEM: -163 ± 161 pg/mL
  NT-proBNP, ΔWeek 24 Median: -315 pg/mL
NT-proBNP; change from baseline, entire cohort
  NT-proBNP, ΔWeek 4 Median: -96 pg/mL
NT-proBNP; end of the 24-week follow-up period, U.S.
  NT-proBNP decrease: 33%
NT-proBNP; week 4, entire cohort
  NT-proBNP decrease from baseline: 96 pg/mL
NT-proBNP; week 12, entire cohort
  NT-proBNP decrease from baseline: 96 pg/mL
NT-proBNP; week 24, entire cohort
  NT-proBNP decrease relative to baseline: 197 pg/mL
[3]; RES = Ln HzR1/Ln HzR2, prevention of AF in HFrEF
  Predicted relative effect size in favor of bucindolol vs. metoprolol: 2.1 fold
[3]; from relative effect size
  Effect size in a direct comparison of bucindolol to metoprolol (estimated): 51%
  Risk ratio in a direct comparison of bucindolol to metoprolol (estimated): 0.49
